Where “and” joins values, the source holds several entries; their conditions need not be identical. Equal values may be shown once.
Experiments:
Assay type in all cases: in vivo
[1] = test system: 6C3HED lymphosarcoma (Gardner lymphosarcoma, GLS); assay: Antitumor activity in C3H mice bearing 6C3HED lymphosarcoma allograft, oral administration; settings: for Percent Inhibition of tumor growth: tumor measured five days after treatment ended
Description: A third tumor model employed C3H mice bearing the widely used allograft 6C3HED lymphosarcoma, also known as the Gardner lymphosarcoma (GLS). The 6C3HED lymphosarcoma was obtained from the Division of Cancer Treatment, National Cancer Institute, Tumor Bank, maintained at E.G. and G. Mason Research (Worcester, Mass.).
(§1) First passage tumors were stored in liquid nitrogen, using standard techniques. The transplanted tumor was reestablished from the Tumor Bank every six months or as needed. The tumor was maintained by serial passage twice weekly in the host mice.
(§2) In the procedures utilized here, the tumor was removed from passage animals and minced into 1- to 3-mm cubic fragments using sterile techniques. Tumor pieces were checked for sterility using both Antibiotic Medium 1 and Brain Heart Infusion (Difco, Detroit, Mich.). The xenograft tumor pieces were implanted into the recipient CD1 Nu/Nu mice subcutaneously in an axillary site by trochar. The allograft 6C3HED tumor pieces were implanted into the recipient C3H mice in an analogous fashion.
Drug therapy on the appropriate schedule was initiated seven days after tumor implantation. […] The total dosage volume for each administration was 0.5 ml. All animals were weighed at the beginning and end of administration of the subject compounds. Food and water were provided ad libitum.
(§3) Each control group and each dosage level of the treated groups consisted of 9 or 10 mice selected at random from the pool of implanted animals. The formulations were administered orally by gavage with the use of an 18-gauge needle. Compounds were dosed daily for 10 days for the studies using the human tumor xenografts and 8 days for the studies using the allograft.
The tumor was measured five days after treatment ended with two dimensional measurements (width and length) of the tumor taken using digital electronic calipers interfaced to a microcomputer. […] Tumor weights were calculated from these measurements using the following formula: [formula]

[2] = test system: HXGC3 human colon adenocarcinoma; assay: Antitumor activity in mice bearing HXGC3 human colon adenocarcinoma xenograft, oral administration; settings: for Toxic/Total (mice which died relative to total in group): HXGC3, oral gavage daily for 10 days; for Percent Inhibition of tumor growth: po
Description: (§4) Two of the tumor models used for showing the anti-neoplastic activity of the sulfonylureas of this invention were the human colon xenografts, HXGC3 and VRC5. J. A. Houghton and D. M. Taylor, British Journal of Cancer, 37:213-223 (1978). These tumors were obtained from St. Jude's Children's Research Hospital and have been widely used as human tumor models.
as §1, §2
(§5) Drug therapy on the appropriate schedule was initiated seven days after tumor implantation. The compound being tested was mixed with 2.5% Emulphor EL620 from GAF Corporation (1:40 dilution in 0.9% saline). The total dosage volume for each administration was 0.5 ml. All animals were weighed at the beginning and end of administration of the subject compounds. Food and water were provided ad libitum.
as §3
(§6) The tumor was measured five days after treatment ended with two dimensional measurements (width and length) of the tumor taken using digital electronic calipers interfaced to a microcomputer. J. F. Worzalla, et Investigational New Drugs, 8:241-251 (1990). Tumor weights were calculated from these measurements using the following formula: [formula] At least one control group of an equal number of mice was treated with the same volume of 2.5% Emulphor only. The percent inhibition is determined by subtracting the ratio of the mean tumor size of the test group relative to the control group from one and multiplying the result by 100.
(§7) The results of several experiments in mice bearing the HXGC3 and VRC5 human colon adenocarcinomas and the 6C3HED lymphosarcoma when the Formula I compounds were administered orally are provided in Table I. In the table, Column 1 refers to the example number of the compound tested; Column 2 describes the particular human tumor xenograft or mouse allograft being studied; Column 3 gives the dosage level of the compound of Formula I in milligrams per kilogram of body weight; Column 4 describes the percent inhibition of tumor growth; and Column 5 tallies the number of mice which died during the course of the experiment relative to the total number of animals in the group.

[3] = test system: VRC5 human colon adenocarcinoma; assay: Antitumor activity in mice bearing VRC5 human colon adenocarcinoma xenograft, oral administration; settings: for Toxic/Total (mice which died relative to total in group): VRC5, oral gavage daily for 10 days; for Percent Inhibition of tumor growth: po
Description: as §4, §1, §2, §5, §3, §6, §7

[4] = 6C3HED, 150 mg/kg, oral gavage daily for 8 days
[5] = 6C3HED, 300 mg/kg, oral gavage daily for 8 days
[6] = 6C3HED, 600 mg/kg, oral gavage daily for 8 days
[7] = Mus musculus, 6C3HED, po, read-out: Percent Inhibition of tumor growth

Q: For `CN(C)c1ccc(S(=O)(=O)NC(=O)Nc2ccc(Cl)cc2)cc1` [Example 1, N-[[(4-chlorophenyl)amino]carbonyl]-4-(dimethylamino)benzenesulfonamide], which “Toxic/Total (mice which died relative to total in group)” value ([1]; 6C3HED, 37.5 mg/kg, oral gavage daily for 8 days) is on record?
A: 0/10

Q: And the “Toxic/Total (mice which died relative to total in group)” value ([1]; 6C3HED, 75 mg/kg, oral gavage daily for 8 days)?
A: 0/10

Q: And the “Toxic/Total (mice which died relative to total in group)” value [1, 4]?
A: 0/10

Q: What about the “Toxic/Total (mice which died relative to total in group)” value [1, 5] of the same compound?
A: 0/10

Q: And the “Toxic/Total (mice which died relative to total in group)” value [1, 6]?
A: 10/10

Q: And the “Percent Inhibition of tumor growth” value [1, 6]?
A: Toxic

Q: What about the inhibition in vivo at 37.5 mg/kg [1, 7] of the same compound?
A: 80%

Q: And the inhibition in vivo at 75 mg/kg [1, 7]?
A: 99%

Q: And the inhibition in vivo at 150 mg/kg [1, 7]?
A: 100%

Q: And the inhibition in vivo at 300 mg/kg [1, 7]?
A: 100%

Q: Which results are given for `CN(C)c1ccc(S(=O)(=O)NC(=O)Nc2ccc(Cl)c(Cl)c2)cc1` [Example 2, N-[[(3,4-dichlorophenyl)amino]carbonyl]-4-(dimethylamino)benzenesulfonamide]?
A: Toxic/Total (mice which died relative to total in group) ([1]; 6C3HED, 20 mg/kg, oral gavage daily for 8 days): 0/10; Toxic/Total (mice which died relative to total in group) ([1]; 6C3HED, 40 mg/kg, oral gavage daily for 8 days): 0/10; Toxic/Total (mice which died relative to total in group) ([1]; 6C3HED, 80 mg/kg, oral gavage daily for 8 days): 0/10; Toxic/Total (mice which died relative to total in group) ([1]; 6C3HED, 160 mg/kg, oral gavage daily for 8 days): 0/10; inhibition in vivo at 20 mg/kg [1, 7]: 35%; inhibition in vivo at 40 mg/kg [1, 7]: 51%; inhibition in vivo at 80 mg/kg [1, 7]: 89%; inhibition in vivo at 160 mg/kg [1, 7]: 97%; Toxic/Total (mice which died relative to total in group) ([2]; 150 mg/kg): 0/10; Toxic/Total (mice which died relative to total in group) ([2]; 300 mg/kg): 0/10; Toxic/Total (mice which died relative to total in group) ([2]; 600 mg/kg): 1/10; Toxic/Total (mice which died relative to total in group) ([2]; 1200 mg/kg): 1/10; Percent Inhibition of tumor growth ([2]; 150 mg/kg): 100%; Percent Inhibition of tumor growth ([2]; 300 mg/kg): 100%; Percent Inhibition of tumor growth ([2]; 600 mg/kg): 100%; Percent Inhibition of tumor growth ([2]; 1200 mg/kg): 100%; Toxic/Total (mice which died relative to total in group) ([3]; 150 mg/kg): 0/10; Toxic/Total (mice which died relative to total in group) ([3]; 300 mg/kg): 0/10; Toxic/Total (mice which died relative to total in group) ([3]; 600 mg/kg): 1/10; Toxic/Total (mice which died relative to total in group) ([3]; 1200 mg/kg): 0/10; Percent Inhibition of tumor growth ([3]; 150 mg/kg): 100%; Percent Inhibition of tumor growth ([3]; 300 mg/kg): 100%; Percent Inhibition of tumor growth ([3]; 600 mg/kg): 100%; Percent Inhibition of tumor growth ([3]; 1200 mg/kg): 100%

Q: With `CN(C)c1cccc(S(=O)(=O)NC(=O)Nc2ccc(Cl)cc2)c1` [Example 4, N-[[(4-chlorophenyl)amino]carbonyl]-3-(dimethylamino)benzenesulfonamide] as the compound, how does the “Toxic/Total (mice which died relative to total in group)” value [1, 4] read?
A: 0/10

Q: What about the “Toxic/Total (mice which died relative to total in group)” value [1, 5] of the same compound?
A: 0/10

Q: What about the inhibition in vivo at 150 mg/kg [1, 7] of the same compound?
A: 73%

Q: And the inhibition in vivo at 300 mg/kg [1, 7]?
A: 95%

Q: Which results are given for `CCNc1ccc(S(=O)(=O)NC(=O)Nc2ccc(Cl)cc2)cc1` [Example 5, N-[[(4-chlorophenyl)amino]carbonyl]-4-(ethylamino)benzenesulfonamide]?
A: Toxic/Total (mice which died relative to total in group) [1, 5]: 0/10; inhibition in vivo at 300 mg/kg [1, 7]: 74%

Q: `O=C(Nc1ccc(Cl)cc1)NS(=O)(=O)c1ccc(N2CCOCC2)cc1` [Example 6, N-[[(4-chlorophenyl)amino]-carbonyl]-4-(4-morpholinyl) benzenesulfonamide] was tested. Which “Toxic/Total (mice which died relative to total in group)” value [1, 4] did it give?
A: 0/10

Q: And the “Toxic/Total (mice which died relative to total in group)” value [1, 5]?
A: 0/10

Q: What about the inhibition in vivo at 150 mg/kg [1, 7] of the same compound?
A: 17%

Q: And the inhibition in vivo at 300 mg/kg [1, 7]?
A: 38%

Q: Which results are given for `O=C(Nc1ccc(Cl)cc1)NS(=O)(=O)c1ccc(N2CCCC2)cc1` [Example 7, N-[[(4-chlorophenyl)amino]-carbonyl]-4-(1-pyrrolidinyl) benzenesulfonamide]?
A: Toxic/Total (mice which died relative to total in group) [1, 4]: 0/10; Toxic/Total (mice which died relative to total in group) [1, 5]: 0/10; inhibition in vivo at 150 mg/kg [1, 7]: 44%; inhibition in vivo at 300 mg/kg [1, 7]: 48%

Q: With `Nc1ccc(S(=O)(=O)NC(=O)Nc2ccc(Cl)c(Cl)c2)cc1` [Example 8, N-[[(3,4-dichlorophenyl)amino]-carbonyl]-4-(amino) benzenesulfonamide] as the compound, how does the inhibition in vivo at 194 mg/kg [1, 7] read?
A: 34%

Q: What about the inhibition in vivo at 388 mg/kg [1, 7] of the same compound?
A: 29%

Q: What about the inhibition in vivo at 775 mg/kg [1, 7] of the same compound?
A: 100%

Q: What about the “Toxic/Total (mice which died relative to total in group)” value ([1]; mouse, in vivo) of the same compound?
A: 1/10 and 0/10

Q: With `CNc1ccc(S(=O)(=O)NC(=O)Nc2ccc(Cl)cc2)cc1` [Example 9] as the compound, how does the “Toxic/Total (mice which died relative to total in group)” value [1, 5] read?
A: 0/10

Q: What about the “Percent Inhibition of tumor growth” value [1, 5] of the same compound?
A: 100%

Q: And the “Toxic/Total (mice which died relative to total in group)” value [1, 6]?
A: 0/10

Q: What about the “Percent Inhibition of tumor growth” value [1, 6] of the same compound?
A: 100%

Q: Which results are given for `CNc1ccc(S(=O)(=O)NC(=O)Nc2ccc(Cl)c(Cl)c2)cc1` [Example 10]?
A: inhibition in vivo at 300 mg/kg [1, 7]: 100%; inhibition in vivo at 600 mg/kg [1, 7]: 100%; Toxic/Total (mice which died relative to total in group) ([1]; mouse, in vivo): 2/10 and 0/10

Q: How did the “Toxic/Total (mice which died relative to total in group)” value [1, 4] turn out when `CC(C)Nc1ccc(S(=O)(=O)NC(=O)Nc2ccc(Cl)c(Cl)c2)cc1` [Example 11] was run?
A: 0/10

Q: What about the “Percent Inhibition of tumor growth” value [1, 4] of the same compound?
A: 71%

Q: What about the “Toxic/Total (mice which died relative to total in group)” value [1, 5] of the same compound?
A: 1/10

Q: And the “Percent Inhibition of tumor growth” value [1, 5]?
A: 96%

Q: Which “Toxic/Total (mice which died relative to total in group)” value [1, 4] does the source give for `CCN(CC)c1ccc(S(=O)(=O)NC(=O)Nc2ccc(Cl)c(Cl)c2)cc1` [Example 12] here?
A: 0/10

Q: What about the “Toxic/Total (mice which died relative to total in group)” value [1, 5] of the same compound?
A: 0/10

Q: And the inhibition in vivo at 150 mg/kg [1, 7]?
A: 54%

Q: And the inhibition in vivo at 300 mg/kg [1, 7]?
A: 70%

— patent publication US5565494A, “Antitumor compositions and methods of treatment” (Eli Lilly and Company, priority 1995, dated 1996)
